Consider five molecules from PMC10341795, “N-Methyl Costaricine and Costaricine, Two Potent Butyrylcholinesterase Inhibitors from Alseodaphne pendulifolia Gamb” (International Journal of Molecular Sciences, 2023).

In experiment [1] the target is T1, AChE from Electrophorus electricus (Electrophorus electricus, UniProt O42275).
T1 construct: purchased Sigma-Aldrich Co. LLC; (St. Louis, MO, USA)
The experiment can be described thus: biochemical. Particulars: for Selectivity Index AChE: IC50 (BChE)/IC50 (AChE); for inhibition at 100 µM: read-out: Percentage Inhibition at 100 µM, AChE, 100 µM. Here is the method: (§1) The cholinesterase inhibitory activities of the extracts and fompounds 1–6 were performed as previously described. AChE from Electrophorus electricus and BChE from equine serum were purchased from Sigma-Aldrich Co. LLC. (St. Louis, MO, USA). An amount of 0.1 M of sodium phosphate buffer (pH 8) was added to a 96-well microplate followed by the sample and 1U of the AChE or BChE. Then, 10 mM of 5,5′-dithiobis(2-nitrobenzoic acid) (DTNB) was added followed by 14 mM of acetylthiocholine iodide or S-butyrylthiocholine chloride. The final concentration of DMSO was 1%.

A further experiment concerns the target T2, BChE from equine serum (Equus caballus, UniProt P81908).
T2 construct: AChE from Electrophorus electricus and BChE from equine serum were purchased from Sigma-Aldrich Co. LLC; purchased Sigma-Aldrich Co. LLC; (St. Louis, MO, USA); host or cells: equine serum
Kind of experiment: biochemical. Format: biochemical. Particulars: for Selectivity Index BChE: IC50 (AChE)/IC50 (BChE); for BChE potency relative to galantamine: comparison of IC50 values; for Cholinesterase selectivity (in words): from selectivity indices, AChE vs BChE; for inhibition at 100 µM: read-out: Percentage Inhibition at 100 µM, BChE, 100 µM. How it is done:
as §1

The next experiment concerns the target T3, BChE (Equus caballus, UniProt P81908).
T3 construct: AChE from Electrophorus electricus and BChE from equine serum were purchased from Sigma-Aldrich Co. LLC; purchased Sigma-Aldrich Co. LLC; (St. Louis, MO, USA); host or cells: equine serum
The experiment can be described thus: Enzyme kinetic study against BChE (Lineweaver-Burk and secondary plots). Format: biochemical. Conditions: for Mode of inhibition against BChE: Lineweaver-Burk plot. How it is done:
as §1, with “1%. Galanthamine was used as the standard for validation and result comparison. The absorbance was measured using a Tecan Infinite 200 Pro Microplate Spectrometer at 412 nm for 30 min.” for “1%.”
The enzyme kinetic studies of compounds 1 and 2 against BChE were performed in a similar manner to the in vitro BChE inhibition assay. The enzyme inhibition kinetic was carried out in the presence of three concentrations of the inhibitors, compounds 1 and 2, at various concentrations of the substrate, S-butyrylthiocholine chloride by constructing a Lineweaver–Burk plot (reciprocal plots of 1/V versus 1/[S]). The inhibition constant (Ki) was estimated from the secondary plot of the Lineweaver–Burk plot.

In general, IC50 refers to the concentration needed to halve the response being measured. Usually inhibition stands for the share of the control response that was lost under treatment. One may read the Ki as the equilibrium dissociation constant of an inhibitor or competing ligand from its target.

Entries after “also recorded” stand apart in the source; their conditions may differ. Where two headings read alike, the source gives them in different places.

T1 sequence (O42275 24-633): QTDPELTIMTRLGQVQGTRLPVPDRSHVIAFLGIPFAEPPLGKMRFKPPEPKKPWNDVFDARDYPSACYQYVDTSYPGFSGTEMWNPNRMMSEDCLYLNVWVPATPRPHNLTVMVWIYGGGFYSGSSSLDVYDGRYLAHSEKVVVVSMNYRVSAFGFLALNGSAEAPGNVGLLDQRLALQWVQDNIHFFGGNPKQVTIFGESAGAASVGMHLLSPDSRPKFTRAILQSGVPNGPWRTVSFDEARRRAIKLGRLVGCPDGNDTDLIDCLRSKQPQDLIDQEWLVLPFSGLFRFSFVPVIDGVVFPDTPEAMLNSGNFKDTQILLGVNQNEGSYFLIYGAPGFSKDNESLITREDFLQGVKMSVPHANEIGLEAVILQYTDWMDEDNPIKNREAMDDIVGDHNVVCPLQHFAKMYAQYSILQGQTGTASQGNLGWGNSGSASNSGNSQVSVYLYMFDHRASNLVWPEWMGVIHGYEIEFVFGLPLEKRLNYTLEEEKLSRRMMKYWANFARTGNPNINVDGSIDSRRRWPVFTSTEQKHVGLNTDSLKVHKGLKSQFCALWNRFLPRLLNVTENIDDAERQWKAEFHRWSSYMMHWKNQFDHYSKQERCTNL
T3 sequence (P81908 whole entry): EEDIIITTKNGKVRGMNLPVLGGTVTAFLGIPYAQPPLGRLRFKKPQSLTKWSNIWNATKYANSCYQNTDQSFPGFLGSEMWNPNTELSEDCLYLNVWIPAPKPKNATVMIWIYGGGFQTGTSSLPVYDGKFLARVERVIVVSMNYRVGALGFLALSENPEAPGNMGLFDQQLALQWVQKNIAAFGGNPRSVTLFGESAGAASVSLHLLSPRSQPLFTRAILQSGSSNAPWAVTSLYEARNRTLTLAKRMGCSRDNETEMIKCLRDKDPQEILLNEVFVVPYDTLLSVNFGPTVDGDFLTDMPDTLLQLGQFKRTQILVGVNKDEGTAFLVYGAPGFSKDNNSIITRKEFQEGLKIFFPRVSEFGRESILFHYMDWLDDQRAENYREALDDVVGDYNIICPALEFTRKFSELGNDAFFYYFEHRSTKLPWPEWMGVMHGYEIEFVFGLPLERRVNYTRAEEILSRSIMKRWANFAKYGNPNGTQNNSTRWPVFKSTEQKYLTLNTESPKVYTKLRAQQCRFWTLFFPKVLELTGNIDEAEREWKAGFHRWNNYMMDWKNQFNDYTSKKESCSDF
T2 sequence (P81908 whole entry): as above

With `COc1cc2c(cc1O)C(Cc1ccc(Oc3cc(CC4c5cc(O)c(OC)cc5CCN4C)ccc3OC)cc1)NCC2` (stereo not shown) [Compound 1, N-methyl costaricine], the “Selectivity Index AChE” value in experiment [1] worked out at 0.15. Moreover, in experiment [1] (mean ± SD (n = 3), read-out: IC50 AChE), the IC50 came to 22.8 ± 1.25 µM. Further, the inhibition at 100 µM in experiment [1] (mean ± SD (n = 3)) was greater than 70%. Moreover, at BChE from equine serum, the “Selectivity Index BChE” value is on record as 6.48, the “BChE potency relative to galantamine” value is “two-fold more potent than galantamine” and the “Cholinesterase selectivity (in words)” value is “BChE selective inhibitors”. The IC50 at BChE from equine serum (mean ± SD (n = 3), read-out: IC50 BChE) stood at 3.51 ± 0.8 µM. Also, the “Mode of inhibition against BChE” value at BChE is recorded as “mixed-mode inhibitors; also recorded: mixed-mode inhibition”. Moreover, on BChE (derived from secondary plots of Lineweaver-Burk plots, read-out: Inhibition constant Ki against BChE), the Ki was 0.67 µM.

For `COc1cc2c(cc1O)[C@@H](Cc1ccc(Oc3cc(C[C@H]4NCCc5cc(OC)c(O)cc54)ccc3OC)cc1)NCC2` [Compound 2, costaricine], in experiment [1], half-maximal inhibition (IC50) was put at 17.5 ± 2.16 µM and the “Selectivity Index AChE” value was determined as 0.17. Also, the inhibition at 100 µM in experiment [1] (mean ± SD (n = 3)) was greater than 70%. On BChE from equine serum, half-maximal inhibition (IC50) was put at 2.9 ± 0.56 µM, the “Selectivity Index BChE” value came out at 6.03, the “BChE potency relative to galantamine” value is recorded as “two-fold more potent than galantamine” and the “Cholinesterase selectivity (in words)” value is “BChE selective inhibitors”. Besides, on BChE, the affinity corresponds to a Ki of 0.05 µM and the “Mode of inhibition against BChE” value is given as “mixed-mode inhibitors; also recorded: mixed-mode inhibition”. In addition, the “Fold higher affinity to BChE compared to compound 1” value on BChE (ratio of Ki values) was found to be 13 fold.

As for `COc1ccc2c(c1OC)-c1c(OC)c(OC)cc3c1C(C2)NCC3` (stereo not shown) [Compound 3, hernagine], the inhibition at 100 µM in experiment [1] (mean ± SD (n = 3)) is less than 10%; on BChE from equine serum (mean ± SD (n = 3)) it was 88.87 ± 0.56%. This molecule also returned an IC50 at BChE from equine serum of 32.9 ± 0.99 µM.

Consider `COc1ccc2c(c1OC)-c1c(OC)c(OC)cc3c1C(C2)N(C)CC3` (stereo not shown) [Compound 4, N-methyl hernagine], for which the inhibition at 100 µM came to 23.1 ± 8.39% in experiment [1] (mean ± SD (n = 3)) and 77.8 ± 3.73% on BChE from equine serum (mean ± SD (n = 3)). This molecule also yielded an IC50 at BChE from equine serum of 49.7 ± 3.95 µM.

Regarding `COc1cc2c3c(c1O)-c1c(ccc(OC)c1OC)C[C@@H]3N(C)CC2` [Compound 5, corydine], the inhibition at 100 µM in experiment [1] (mean ± SD (n = 3)) was 29.7 ± 1.85%; at BChE from equine serum (mean ± SD (n = 3)), 77.9 ± 1.73%. The IC50 against BChE from equine serum was 52.9 ± 4.11 µM.
